Measured values as given in PubChem BioAssay (NCI).
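Method: 48-hour compound exposure of cells in 96-well plates, five concentrations, linear interpolation of endpoints. GI50 marks 50% less growth. The concentration for full growth arrest is given as TGI.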

Legend:
Experiment in all cases: DTP human tumour cell line panel, 48 h
[1] = test system: EKVX NSCLC
[2] = test system: SK-MEL-2 melanoma
[3] = test system: UO-31 renal
[4] = test system: HCT-15 colon
[5] = test system: M14 melanoma
[6] = test system: NCI-H226 lung
[7] = test system: UACC-62 melanoma
[8] = test system: NCI-H23 lung
[9] = test system: HL-60(TB) leukemia
[10] = test system: HOP-92 NSCLC

Row | SMILES | TGI [1] [µM] | TGI [2] [µM] | TGI [3] [µM] | TGI [4] [µM] | TGI [5] [µM] | TGI [6] [µM] | TGI [7] [µM] | TGI [8] [µM] | TGI [9] [µM] | TGI [10] [µM] | GI50 [1] [µM] | GI50 [2] [µM] | GI50 [3] [µM] | GI50 [5] [µM] | GI50 [6] [µM] | GI50 [7] [µM] | GI50 [8] [µM] | GI50 [9] [µM] | GI50 [10] [µM]
1 | N#CCCCC[N+]12CN3CN(CN(C3)C1)C2 | > 100 | > 100 | > 100 | > 100 | > 100 | > 100 | > 100 | > 100 | > 100 | > 100 |  |  |  |  |  |  |  |  | 
2 | CC(C)=CCNc1ncnc2nc[nH]c12 | > 100 | > 100 | > 100 | > 100 | > 100 | > 100 | > 100 | > 100 | > 100 | > 100 |  |  |  |  |  |  |  |  | 
3 | Nc1c2c(=O)[nH]c(=O)c2c(N)c2c(=O)c3ccccc3c(=O)c12 | 9.55 | 6.2 | 31.1 | 3.19 | 0.88 | 4.96 | 3.25 | 3.17 | > 100 | 51.9 |  |  |  |  |  |  |  |  | 
4 | O=C1c2ccccc2C(=O)c2c(Nc3ccc4c5c(cccc35)C(=O)c3ccccc3-4)cccc21 | > 100 | > 100 | > 100 | > 100 | > 100 | > 100 | > 100 | > 100 |  | > 100 |  |  |  |  |  |  |  |  | 
5 | N#CN=C(N)NC(=O)/C=C/C=C/c1ccc(Cl)cc1 |  | > 100 | > 100 | > 100 | > 100 | > 100 | > 100 | > 100 | > 100 | > 100 |  |  |  |  |  |  |  |  | 
6 | CSc1nc(Cl)c(Br)c(Sc2nc(N)nc3nc[nH]c23)n1 |  | 16.9 | 17 | 21.2 | 15.3 | 22.3 | 14.2 | 24 | 13.3 | 19.2 |  |  |  |  |  |  |  |  | 
7 | O=C(CSc1nc2ccccc2s1)c1sc2sc3ccccc3[n+]2c1[O-] | > 100 | > 100 | > 100 | > 100 | > 100 | > 100 | > 100 | > 100 | > 100 | > 100 |  |  |  |  |  |  |  |  | 
8 | COc1ccc(C(=O)Cn2c(C(=O)/C=C/c3ccco3)nc3ccccc32)cc1 |  | 51.6 | > 100 | > 100 | > 100 | > 100 | > 100 | > 100 | 71.7 | > 100 |  |  |  |  |  |  |  |  | 
9 | CN(C)c1ccc(/C=c2/c3ccccc3n3nc4ccccc4c23)cc1 | > 100 | > 100 | > 100 | > 100 | > 100 |  | > 100 | > 100 | > 100 | 90.7 |  |  |  |  |  |  |  |  | 
10 | O=c1ccc2nc(-c3ccccc3)nn(-c3ccccn3)c-2c1 | 28.2 | 41.9 | 2.81 |  | 44.6 | 57.5 | 32.8 | 45.1 | 4.33 | 3.31 | 14.8 | 15 | 1.45 | 16.7 | 20.4 | 15 | 13.6 | 1.34 | 1.25
11 | CC(=O)OC(C)C1C2=C(C(=O)CC1(C)O)C(=O)c1c(ccc(-c3ccc4c(c3O)C(=O)C3=C(C4=O)C(C(C)OC(C)=O)C(C)(O)CC3=O)c1O)C2=O (stereo not drawn) | 26.1 | 2.74 | 9.16 | 5.49 | 4.3 | 27.8 | 3.1 | 3.07 | > 100 | 3.08 |  |  |  |  |  |  |  |  | 
12 | COc1ccc(C2CC(c3ccccc3)=Nc3c(-c4ccccc4)nnn32)cc1 (stereo not drawn) |  | > 100 | > 100 | > 100 | > 100 | > 100 | > 100 | > 100 | > 100 |  |  |  |  |  |  |  |  |  | 
13 | O=C1CC(O)c2c(Br)sc(Br)c21 (stereo not drawn) | 27.7 | 28 | 7.19 | 43 | 28.8 |  | 26.3 | 57.7 | 14.9 | 43.6 |  |  |  |  |  |  |  |  | 
14 | COc1ccc(C[C@H](N)C(=O)NC2C(CO)OC(n3cnc4c(N(C)C)ncnc43)C2O)cc1 (stereo partly drawn) | 1.06 | 3.26 | 7.89 | 11.9 | 1.77 | 0.446 | 0.411 | 0.432 | 0.442 | 0.591 |  |  |  |  |  |  |  |  | 
15 | CC(=O)Nc1ccc(NC(=O)c2c(Cl)c(Cl)c(Cl)c(Cl)c2-c2nc3ccccc3[nH]2)cc1 | > 100 |  | > 100 | > 100 | > 100 | > 100 | > 100 | > 100 | 67.6 | 71.7 |  |  |  |  |  |  |  |  | 
16 | Nc1nc(N)c2c(n1)NC(=O)c1c(c3ccccc3n1Cc1ccc(Cl)cc1)C2 | > 100 | > 100 | > 100 | 35.6 | > 100 | > 100 | > 100 | > 100 | 39.4 | 20.4 |  |  |  |  |  |  |  |  | 
17 | CC(C)c1cc(CN(C)C)c(O)c(C(C)(C)C)c1 | 64.4 | 38.6 | 58 | 63.3 | 78.5 | 42.5 | > 100 | > 100 | 15.1 |  |  |  |  |  |  |  |  |  | 
18 | C=CC[N+]12CN3CN(CN(C3)C1)C2 | 46.4 | > 100 | 43.7 | 50.9 | 82.3 |  | 80.2 | 52.8 | > 100 | 46.9 |  |  |  |  |  |  |  |  | 
19 | N=C(c1ccc2ccccc2c1)c1ccccc1Cc1ccccc1 | > 100 | 49.6 | > 100 | > 100 | > 100 | 98.9 | > 100 | > 100 | 55.1 | > 100 |  |  |  |  |  |  |  |  | 
20 | CC(C)(C)c1cc(C2NCCO2)cc(C(C)(C)C)c1O (stereo not drawn) | > 100 | > 100 |  | > 100 |  | > 100 | > 100 | > 100 | > 100 | > 100 |  |  |  |  |  |  |  |  | 
21 | NC(=O)C(N)=O | > 100 | > 100 | > 100 | > 100 | > 100 |  | > 100 | > 100 | > 100 | > 100 |  |  |  |  |  |  |  |  | 
22 | CCOC(=O)C12CCC(=O)C=C1[C@@H](C)C(=O)CC2 (stereo partly drawn) | > 100 | > 100 | > 100 | > 100 | > 100 | > 100 | > 100 | > 100 | > 100 | > 100 |  |  |  |  |  |  |  |  | 
23 | COc1ccc(-c2c(=O)[nH]n3c(=S)nc(-c4ccccc4)[nH]c23)cc1OC | 60.8 |  | 33.8 | 41.6 | 38 | 40.7 | 39.8 | 58.3 | 39.3 | 37 |  |  |  |  |  |  |  |  | 
24 | COc1cc(NC(C)=O)ccc1C(=O)N/N=C/c1ccc(Cl)cc1Cl | > 100 | 51.3 | > 100 | > 100 | > 100 | > 100 | > 100 | > 100 | > 100 | > 100 |  |  |  |  |  |  |  |  | 
25 | CC(C)(C)N1C(C(=O)c2ccccc2)C1c1ccccc1 (stereo not drawn) | > 100 |  |  | > 100 | > 100 | > 100 | > 100 | > 100 | > 100 | > 100 |  |  |  |  |  |  |  |  | 
26 | C#CCOc1c(C(=O)OCC)c(=O)n(C)c2ccccc12 | > 100 | > 100 | > 100 | > 100 | > 100 | > 100 | > 100 | > 100 | > 100 | > 100 |  |  |  |  |  |  |  |  | 
27 | O=C(CNc1cccc([N+](=O)[O-])c1)Nn1c(-c2ccccc2)nc2ccccc2c1=O | 6.86 |  | 4.12 | 2.23 |  | 0.512 | 0.608 | 9.32 | 1.81 |  |  |  |  |  |  |  |  |  | 
